Experimental data reported in the supplement of paper PMC3974653.
Where a name gives a salt, the structure may show the parent alone.

test system: MTT (mouse pheochromocytoma); experiment: IC50 of cell viability (ATP content); details: (24 or 48 h)
Summary of the method: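 MTT mouse pheochromocytoma cells, cultured overnight at 37°C, 5% CO2 in DMEM with 5% FBS and 1% horse serum, were exposed in white 1536-well plates to library compounds in DMSO at final 0.5 nM to 46 µM (8 concentrations) for 24 or 48 hrs. CellTiter-Glo luminescence was normalised to positive-control (100%) and DMSO (0%) wells. A four-parameter logistic fit gave the IC50.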

Compound	IC50 of cell viability
[K+].C[C@@]12CCC(=O)\C=C1\C=C/[C@@H]3[C@@H]2CC[C@]4(C)[C@@H]3CC[C@]4(O)CCC([O-])=O [Canrenoic acid potassium salt]	> 46 µM
CCC(Cc1c(I)cc(I)c(O)c1I)C(=O)O (centres undefined) [Acide iophenoique]	> 46 µM
Oc1c(Br)cc(Br)cc1Br [2,4,6-Tribromophenol]	> 46 µM
O=C(NC(=O)c1c(F)cccc1F)Nc1cc(Cl)c(OC(F)(F)C(F)C(F)(F)F)cc1Cl (centres undefined) [Lufenuron]	> 46 µM
COC1=CC2=C(C=C1OC)[C@@]34CCN5CC/6=C/COC7CC(=O)N2C3[C@H]7[C@@H]6C[C@H]45 (some centres undefined) [BRUCINE]	> 46 µM
O=S(=O)([O-])O.[Na+] [Sodium hydrogen sulfate]	> 46 µM
CN(C)C1C(=O)C(C(N)=O)C(=O)C2(O)C(=O)C3C(=O)c4c(O)cccc4C(C)(O)C3C(O)C12 (centres undefined) [OXYTETRACYCLINE]	> 46 µM
Cl.Nc1c2c(nc3c1CCC3)CCCC2.O [IPIDACRINE HYDROCHLORIDE HYDRATE]	> 46 µM
CC1(C)S[C@@H]2[C@H](NC(=O)[C@H](N)c3ccccc3)C(=O)N2[C@@H]1C(=O)OCOC(=O)[C@@H]1N2C(=O)C[C@@H]2S([O-])([O-])C1(C)C [Sultamicillin tosylate]	> 46 µM
Cl.CN1CCCC(CC1)N2\N=C(CC3=CC=C(Cl)C=C3)/C4=CC=CC=C4C2=O (centres undefined) [AZELASTINE HYDROCHLORIDE]	> 46 µM
Nc1ccc(N)cc1 [P-PHENYLENEDIAMINE]	> 46 µM
O=C(O)CP(=O)(O)O [Phosphonoacetic acid]	> 46 µM
Cc1onc(-c2ccccc2)c1C(=O)N[C@@H]1C(=O)N2C1SC(C)(C)[C@@H]2C(=O)[O-] (some centres undefined) [Oxacillin sodium salt]	> 46 µM
CN(C)CCc1c[nH]c2ccc(O)cc12 [Bufotenine]	> 46 µM
CCOC(=O)C/1=C/C(OC(CC)CC)C(NC(C)=O)C(N)C1.OC(C(O)C(O)=O)C(O)=O (centres undefined) [OSELTAMIVIR TARTRATE]	> 46 µM
CC[C@@H](O)C(C[C@@H](C)N(C)C)(c1ccccc1)c1ccccc1	> 46 µM
CC(C)c1cccc(C(C)C)c1O [PROPOFOL]	> 46 µM
CN1C(=O)CN=C(c2ccccc2)c2cc(Cl)ccc21 [Diazepam]	> 46 µM
CCCCC(=O)O [Valeric acid]	> 46 µM
CNC(=O)Oc1ccc2c(c1)[C@]1(C)CCN(C)[C@@H]1N2C [PHYSOSTIGMINE]	> 46 µM

Other lines, results leading:

IC50 of cell viability	Compound
> 46 µM	CO/N=C1\C[C@]2(C[C@@H]3C[C@H](CC=C(C)C[C@@H](C)C=CC=C4CO[C@@H]5[C@@H](O)C(C)=C[C@@H](C(=O)O3)[C@]45O)O2)O[C@@H](/C(C)=C/C(C)C)[C@H]1C [Moxidectin]
> 46 µM	CCN1\C=C(\C(O)=O)C(=O)C2=CC=C(C)N=C12 [Nalidixic acid]
> 46 µM	CC(=O)SC[C@@H](Cc1ccccc1)C(=O)NCC(=O)OCc1ccccc1 [Racecadotril]
> 46 µM	OCC1OC([S][Au])[C@H](O)C(O)C1O (some centres undefined) [AUROTHIOGLUCOSE]
> 46 µM	CC1=CC(=C(O)C(=C1C\C2=N\CCN2)C)C(C)(C)C [OXYMETAZOLINE]
> 46 µM	CCCCCCCCCCOc1cc2c(O)c(C(=O)OCC)cnc2cc1OCC [DECOQUINATE]
> 46 µM	FC(F)(F)COCC(F)(F)F [FLUROTYLUM]
> 46 µM	OCC1(O)OC[C@@H](O)[C@H](O)[C@@H]1O (stereo partly drawn) [D-(-)-TAGATOSE]
> 46 µM	N=C(N)NCc1cccc(I)c1 [m-Iodobenzylguanidine hemisulfate]
